# Laboratory results: patent US11034675B2, “Solid forms of Selinexor and process for their preparation” (DR. REDDY'S LABORATORIES LIMITED, priority 2016, dated 2021)
# Tests used:
# [1] = stability of amorphous form under hygroscopic conditions (higher relative humidity); format: physicochemical; conditions: higher relative humidity conditions of more than 60% RH
# Text: (§1) The present application provides a stable amorphous form of Selinexor suitable for powder handling and downstream processes. […] In an embodiment, the present application provides a stable amorphous form of Selinexor with less than 5% of crystallinity, preferably with less than 1% crystallinity and more preferably devoid of crystallinity as per X-ray diffraction analysis.
# [2] = stability of amorphous form under mechanical stress (grinding, milling); format: physicochemical; conditions: mechanical stress such as grinding and milling
# Text: as §1
compound,measurement,setting,value
"O=C(/C=C\n1cnc(-c2cc(C(F)(F)F)cc(C(F)(F)F)c2)n1)NNc1cnccn1 [Amorphous form of Selinexor, (Z)-3-(3-(3,5-bis(trifluoromethyl)phenyl)-IH—I,2,4-triazol-1-yl)-N′-(pyrazin-2yl) acrylohydrazide]",stability under hygroscopic conditions,[1],stable
same,stability under mechanical stress,[2],highly stable
